US20050170041A1, “Chewing gum compositions comprising monatin and methods for making same” (Cargill, Inc., priority 2003, published 2005)
Residues, ends and D or L forms follow the SMILES beside them.

What was measured:
[1] = Sweetness comparison procedure against sucrose reference solutions (sensory panel); format: in vivo; settings: experienced sensory evaluators
Procedure: The S,S stereoisomer of monatin is approximately 50-200 times sweeter than sucrose by weight. The R,R stereoisomer of monatin is approximately 2000-2400 times sweeter than sucrose by weight. The sweetness of the monatin is calculated using experienced sensory evaluators in a sweetness comparison procedure, where a test sweetener solution is matched for sweetness intensity against one of a series of reference solutions.
Specifically, one may assess sweetness of a sweetener relative to sucrose by using a panel of trained sensory evaluators experienced in the sweetness estimation procedure. All samples (in same buffers) are served in duplicate at a temperature of 22° C.±1° C. Sample solutions may be prepared, for example, using a buffer comprising 0.16% (v/w) citric acid and 0.02% (v/w) sodium citrate at ˜pH 3.0. Test solutions, coded with 3 digit random number codes, are presented individually to panelists, in random order. Sucrose reference standards, ranging from 2.0-10.0% (w/v) sucrose, increasing in steps of 0.5% (w/v) sucrose are also provided. Panelists are asked to estimate sweetness by comparing the sweetness of the test solution to the sucrose standards. […]
Sucrose equivalent value (SEV) (e.g., % sucrose), determined by the panel of trained sensory evaluators, is plotted as a function of monatin concentration to obtain a dose response curve. […]

[2] = Sensory evaluation of sweeteners in iced tea; format: in vivo; settings: 200 ml serving, aspartame 450 ppm, monatin 40 ppm, panel n=6; for Comments: sweetness and flavor profile: sucralose 170 ppm
Procedure: Monatin formulations, including R,R monatin or R,R monatin/erythritol combinations, were assessed relative to other known sweeteners (aspartame and sucralose) in iced tea. The key sensory parameters assessed included sweetness quality, aftertaste, bitter taste and its aftertaste. Qualitative evaluation has been carried out.
An ice tea formulation was developed to evaluate sweetener performance (Table 7).
Sweeteners were added to tea at the following concentrations:
The evaluation of ice tea drinks was carried out by a panel (n=6) of experienced sensory evaluators.

[3] = Sensory stability of monatin and aspartame at pH 2.5, 3.0, 4.0 at 40° C.; format: physicochemical; settings: for Rate constant (k) of sweetness loss: 40° C., pseudo-first order assumed; for Sweetness Retained: after 100 days storage at 40° C.; for SEV Aspartame / Retention of Aspartame Sweetness: stored at 40° C., aspartame 400 ppm
Procedure: The sensory stability of monatin solutions prepared at pH 2.5, 3.0 and 4.0 and stored at 40° C. was monitored for 100 days. Loss of sweetness from these solutions was compared with the losses of sweetness from aspartame solutions prepared and stored under identical conditions.
The sensory stability of monatin (8% SEV, ˜55 ppm, synthetic blend containing approximately 96% of the 2R,4R/2S, 4S enantiometric pair and 4% of the 2R,4S/2S,4R enantiometric pair) in phosphate/citrate buffers having a pH of 2.5, 3.0, and 4.0 was examined after storage at 40° C. The stability of monatin was compared to that of aspartame (400 ppm) in the same buffers. Three sucrose reference solutions were prepared in the same phosphate/citrate buffers as the monatin and aspartame solutions. All prepared solutions were stored in the dark.
The sweetness of each sweetener relative to sucrose was assessed in duplicate by a panel (n=8) of trained sensory evaluators experienced in the sweetness estimation procedure. All samples (in the same buffers) were served in duplicate at a temperature of 22° C.±1° C. Monatin (test) solutions, coded with 3 digit random number codes were presented individually to panelists, in random order. Sucrose reference standards, ranging from 4.0-10.0% (w/v) sucrose, increasing in steps of 0.5% (w/v) sucrose were also provided. Panelists were asked to estimate sweetness by comparing the sweetness of the test solution to the sucrose standards. This was carried out by taking 3 sips of the test solution, followed by a sip of water, followed by 3 sips of sucrose standard followed by a sip of water, etc. Panelists were encouraged to estimate the sweetness to one decimal place, e.g., 6.8, 8.5. A five minute rest period was imposed between evaluating the test solutions. Panelists were also asked to rinse well and eat a cracker to reduce any potential carry over effects.
If a pseudo-first order breakdown reaction is assumed, a plot of logn percentage retention versus time (logn % RTN v. t) allows estimation of the half-life (t½) and rate constant (k) of sweetness loss under any given set of conditions. In so doing, the kinetics of monatin and aspartame sweetness loss may be summarized as follows in Table 14.

N[C@@H](C[C@@](O)(Cc1c[nH]c2ccccc12)C(=O)O)C(=O)O (single isomer, unassigned) [R,R stereoisomer of monatin]
sweetness relative to sucrose by weight [1]: 2000-2400 times sweeter than sucrose

NC(CC(O)(Cc1c[nH]c2ccccc12)C(=O)O)C(=O)O (single isomer, unassigned) [S,S stereoisomer of monatin]
sweetness relative to sucrose by weight [1]: 50-200 times sweeter than sucrose

COC(=O)[C@H](Cc1ccccc1)NC(=O)[C@@H](N)CC(=O)O [Aspartame, reference compound] (H-Asp-Phe-OMe)
Comments: flavor enhancement (lemon flavor notes) [2]: tea flavor. No evidence of flavor
Comments: sweetness and flavor profile [2]: Good temporal characteristics although
Rate constant (k) of sweetness loss ([3]; pH 2.5): 0.013 day⁻¹
Sweetness Retained ([3]; pH 2.5): 11%
SEV Aspartame ([3]; pH 2.5, day 0): 7.34 % sucrose
Retention of Aspartame Sweetness ([3]; pH 2.5, day 1): 94.0%
SEV Aspartame ([3]; pH 2.5, day 1): 6.90 % sucrose
Retention of Aspartame Sweetness ([3]; pH 2.5, day 2): 92.6%
SEV Aspartame ([3]; pH 2.5, day 2): 6.80 % sucrose
Retention of Aspartame Sweetness ([3]; pH 2.5, day 3): 89.9%
SEV Aspartame ([3]; pH 2.5, day 3): 6.60 % sucrose
Retention of Aspartame Sweetness ([3]; pH 2.5, day 4): 85.7%
SEV Aspartame ([3]; pH 2.5, day 4): 6.29 % sucrose
Retention of Aspartame Sweetness ([3]; pH 2.5, day 7): 81.9%
SEV Aspartame ([3]; pH 2.5, day 7): 6.01 % sucrose
Retention of Aspartame Sweetness ([3]; pH 2.5, day 8): 81.5%
SEV Aspartame ([3]; pH 2.5, day 8): 5.98 % sucrose
Retention of Aspartame Sweetness ([3]; pH 2.5, day 9): 81.3%
SEV Aspartame ([3]; pH 2.5, day 9): 5.97 % sucrose
Retention of Aspartame Sweetness ([3]; pH 2.5, day 11): 79.8%
SEV Aspartame ([3]; pH 2.5, day 11): 5.86 % sucrose
Retention of Aspartame Sweetness ([3]; pH 2.5, day 50): 57.1%
SEV Aspartame ([3]; pH 2.5, day 50): 4.19 % sucrose
Retention of Aspartame Sweetness ([3]; pH 2.5, day 100): 10.9%
SEV Aspartame ([3]; pH 2.5, day 100): 0.80 % sucrose
Rate constant (k) of sweetness loss ([3]; pH 3.0): 0.009 day⁻¹
Sweetness Retained ([3]; pH 3.0): 31%
SEV Aspartame ([3]; pH 3.0, day 0): 7.15 % sucrose
Retention of Aspartame Sweetness ([3]; pH 3.0, day 1): 96.5%
SEV Aspartame ([3]; pH 3.0, day 1): 6.90 % sucrose
Retention of Aspartame Sweetness ([3]; pH 3.0, day 2): 96.1%
SEV Aspartame ([3]; pH 3.0, day 2): 6.87 % sucrose
Retention of Aspartame Sweetness ([3]; pH 3.0, day 3): 92.3%
SEV Aspartame ([3]; pH 3.0, day 3): 6.60 % sucrose
Retention of Aspartame Sweetness ([3]; pH 3.0, day 4): 89.9%
SEV Aspartame ([3]; pH 3.0, day 4): 6.43 % sucrose
Retention of Aspartame Sweetness ([3]; pH 3.0, day 7): 86.3%
SEV Aspartame ([3]; pH 3.0, day 7): 6.17 % sucrose
Retention of Aspartame Sweetness ([3]; pH 3.0, day 8): 82.9%
SEV Aspartame ([3]; pH 3.0, day 8): 5.93 % sucrose
Retention of Aspartame Sweetness ([3]; pH 3.0, day 9): 83.1%
SEV Aspartame ([3]; pH 3.0, day 9): 5.94 % sucrose
Retention of Aspartame Sweetness ([3]; pH 3.0, day 11): 81.5%
SEV Aspartame ([3]; pH 3.0, day 11): 5.83 % sucrose
Retention of Aspartame Sweetness ([3]; pH 3.0, day 50): 65.9%
SEV Aspartame ([3]; pH 3.0, day 50): 4.71 % sucrose
Retention of Aspartame Sweetness ([3]; pH 3.0, day 100): 30.8%
SEV Aspartame ([3]; pH 3.0, day 100): 2.20 % sucrose
Rate constant (k) of sweetness loss ([3]; pH 4.0): 0.005 day⁻¹
Sweetness Retained ([3]; pH 4.0): 58%
SEV Aspartame ([3]; pH 4.0, day 0): 7.10 % sucrose
Retention of Aspartame Sweetness ([3]; pH 4.0, day 3): 95.1%
SEV Aspartame ([3]; pH 4.0, day 3): 6.75 % sucrose
Retention of Aspartame Sweetness ([3]; pH 4.0, day 8): 87.8%
SEV Aspartame ([3]; pH 4.0, day 8): 6.23 % sucrose
Retention of Aspartame Sweetness ([3]; pH 4.0, day 11): 84.8%
SEV Aspartame ([3]; pH 4.0, day 11): 6.02 % sucrose
Retention of Aspartame Sweetness ([3]; pH 4.0, day 17): 81.0%
SEV Aspartame ([3]; pH 4.0, day 17): 5.75 % sucrose
Retention of Aspartame Sweetness ([3]; pH 4.0, day 24): 82.4%
SEV Aspartame ([3]; pH 4.0, day 24): 5.85 % sucrose
Retention of Aspartame Sweetness ([3]; pH 4.0, day 50): 74.5%
SEV Aspartame ([3]; pH 4.0, day 50): 5.29 % sucrose
Retention of Aspartame Sweetness ([3]; pH 4.0, day 100): 57.7%
SEV Aspartame ([3]; pH 4.0, day 100): 4.10 % sucrose

OC[C@H]1O[C@H](O[C@]2(CCl)O[C@H](CCl)[C@@H](O)[C@@H]2O)[C@H](O)[C@@H](O)[C@H]1Cl [Sucralose]
Comments: sweetness and flavor profile [2]: Delay in sweetness onset means first
